Measured values from PubChem BioAssay AID248 (DTP/NCI, 2004).
“And” between values parts separate entries of the source, which are not always exact repeats. Equal values may be shown once. Inconclusive results and toxic doses are left out. No stated cut-off is given here; in the data, active means T/C of 150% or more; inactive means T/C below 125%.

Test system: L1210 leukemia ip in BDF1 mice, survival T/C
Assay: NCI In Vivo Anticancer Drug Screen. Data for tumor model L1210 Leukemia (intraperitoneal) in B6D2F1 (BDF1) mice
Details: endpoint: mean survival time, higher = longer survival
Outline: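 Ratio derived from survival: compound-dosed mice over vehicle-dosed mice, all bearing a transplantable tumor.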

[1] = dose: 100.0 mg/kg/injection, schedule: Q01DX001 (ip), vehicle: saline
[2] = dose: 200.0 mg/kg/injection, schedule: Q01DX001 (ip), vehicle: saline
[3] = dose: 400.0 mg/kg/injection, schedule: Q01DX001 (ip), vehicle: saline
[4] = dose: 100.0 mg/kg/injection, schedule: Q01DX009 (ip), vehicle: saline
[5] = dose: 200.0 mg/kg/injection, schedule: Q01DX009 (ip), vehicle: saline
[6] = dose: 400.0 mg/kg/injection, schedule: Q01DX009 (ip), vehicle: saline
[7] = dose: 50.0 mg/kg/injection, schedule: Q01DX009 (ip), vehicle: saline with Tween-80
[8] = dose: 100.0 mg/kg/injection, schedule: Q01DX009 (ip), vehicle: saline with Tween-80
[9] = dose: 100.0 mg/kg/injection, schedule: Q01DX001 (ip), vehicle: saline with Tween-80
[10] = dose: 200.0 mg/kg/injection, schedule: Q01DX001 (ip), vehicle: saline with Tween-80
[11] = dose: 100.0 mg/kg/injection, schedule: Q04DX002 (ip), vehicle: Klucel (hydroxypropylcellulose) (HPC)
[12] = dose: 200.0 mg/kg/injection, schedule: Q04DX002 (ip), vehicle: Klucel (hydroxypropylcellulose) (HPC)
[13] = dose: 400.0 mg/kg/injection, schedule: Q04DX002 (ip), vehicle: Klucel (hydroxypropylcellulose) (HPC)
[14] = dose: 150.0 mg/kg/injection, schedule: Q01DX Z (ip), vehicle: saline
[15] = dose: 100.0 mg/kg/injection, schedule: Q04DX003 (ip), vehicle: saline with Tween-80
[16] = dose: 200.0 mg/kg/injection, schedule: Q04DX003 (ip), vehicle: saline with Tween-80
[17] = dose: 400.0 mg/kg/injection, schedule: Q04DX003 (ip), vehicle: saline with Tween-80

Measured: T/C

O=C(N/N=C/c1ccc(O)cc1O)c1cccc2ccccc12
inactive: [1] 92 % of control | [2] 100 % of control | [3] 92 % of control

COC(=O)CCC#N
inactive: [4] 101 % of control | [5] 91 % of control | [6] 102 % of control

COc1ccc(C2NCCCC2c2ccccc2)cc1 (configuration not stated)
inactive: dose: 100.0 mg/kg/injection, schedule: Q01DX001 (ip), vehicle: carboxymethylcellulose (CMC) 102 % of control | dose: 200.0 mg/kg/injection, schedule: Q01DX001 (ip), vehicle: carboxymethylcellulose (CMC) 94 % of control | dose: 400.0 mg/kg/injection, schedule: Q01DX001 (ip), vehicle: carboxymethylcellulose (CMC) 110 % of control

CCN(CC)Cc1ccc(C2=NCCO2)cc1
inactive: dose: 50.0 mg/kg/injection, schedule: Q01DX001 (ip), vehicle: saline 91 % of control | [1] 94 % of control | [2] 98 % of control

CC(C)C1(O)C2C3CCC(C3)C2C(=O)C2C3CCC(C3)C21 (configuration not stated)
inactive: [7] 96 % of control | [8] 93 % of control | dose: 200.0 mg/kg/injection, schedule: Q01DX009 (ip), vehicle: saline with Tween-80 93 % of control

O=C(O)NC1(c2ccccc2)OC1c1ccccc1 (configuration not stated)
inactive: dose: 50.0 mg/kg/injection, schedule: Q01DX001 (ip), vehicle: saline with Tween-80 115 % of control | [9] 98 % of control | [10] 94 % of control

C=C(C)C(=O)[O][Sn]([CH2]CCC)([CH2]CCC)[CH2]CCC
inactive: dose: 0.39 mg/kg/injection, schedule: Q01DX009 (ip), vehicle: saline 98 % of control | dose: 0.78 mg/kg/injection, schedule: Q01DX009 (ip), vehicle: saline 105 % of control | dose: 1.56 mg/kg/injection, schedule: Q01DX009 (ip), vehicle: saline 94 % of control | dose: 6.25 mg/kg/injection, schedule: Q01DX009 (ip), vehicle: saline 92 % of control

CC(C)(C)OC(=O)C(=O)C(OC(C)(C)C)C(=O)OC(C)(C)C (configuration not stated)
inactive: [1] 98 % of control | [2] 102 % of control

O=C(NCCS)c1ccc(C(=O)NCCS)cc1
inactive: [11] 95 % of control | [12] 103 % of control | [13] 103 % of control

CN1CCN(C(=O)OCCOCCOC(=O)N2CCN(C)CC2)CC1
inactive: [14] 108 % of control | dose: 230.0 mg/kg/injection, schedule: Q01DX Z (ip), vehicle: saline 93 % of control | dose: 350.0 mg/kg/injection, schedule: Q01DX Z (ip), vehicle: saline 100 % of control

CCCCCCCCCCCC(=O)CCC
inactive: dose: 100.0 mg/kg/injection, schedule: Q01DX009 (ip), vehicle: other 87 % of control | dose: 100.0 mg/kg/injection, schedule: Q04DX003 (ip), vehicle: other 103 % of control | dose: 200.0 mg/kg/injection, schedule: Q01DX009 (ip), vehicle: other 95 % of control | dose: 200.0 mg/kg/injection, schedule: Q04DX003 (ip), vehicle: other 105 % of control | dose: 400.0 mg/kg/injection, schedule: Q01DX009 (ip), vehicle: other 89 % of control | dose: 400.0 mg/kg/injection, schedule: Q04DX003 (ip), vehicle: other 103 % of control

CNNC(=O)c1ccncc1
inactive: dose: 62.0 mg/kg/injection, schedule: Q01DX015 (ip), vehicle: water 91 % of control | dose: 125.0 mg/kg/injection, schedule: Q01DX015 (ip), vehicle: water 98 % of control

Clc1ccc(C2OCCO2)c(Cl)c1
inactive: [1] 97 % of control | [2] 92 % of control | [3] 87 % of control

CCOP(=S)(S)OCC.[Cr]
inactive: dose: 50.0 mg/kg/injection, schedule: Q01DX001 (ip), vehicle: other 98 % of control | dose: 100.0 mg/kg/injection, schedule: Q01DX001 (ip), vehicle: other 98 % of control | dose: 200.0 mg/kg/injection, schedule: Q01DX001 (ip), vehicle: other 102 % of control | dose: 400.0 mg/kg/injection, schedule: Q01DX001 (ip), vehicle: other 96 % of control

CCCCCCCCCCCCCCCCCCSC(=N)N
inactive: dose: 12.5 mg/kg/injection, schedule: Q01DX009 (ip), vehicle: saline with Tween-80 101 % of control | dose: 25.0 mg/kg/injection, schedule: Q01DX009 (ip), vehicle: saline with Tween-80 98 % of control | [7] 95 % of control | [8] 100 % of control

O=C(O)c1ccc([N+](=O)[O-])cc1Sc1ccsc1
inactive: [1] 98 % of control | [2] 98 % of control | [3] 98 % of control

O=C(O)CCCCNC(=O)c1ccc([N+](=O)[O-])cc1
inactive: [9] 99 % of control | [10] 94 % of control | dose: 400.0 mg/kg/injection, schedule: Q01DX001 (ip), vehicle: saline with Tween-80 87 % of control

CC[S][Hg][Cl]
inactive: dose: 3.0 mg/kg/injection, schedule: Q01DX009 (ip), vehicle: saline with Tween-80 92 % of control | dose: 6.0 mg/kg/injection, schedule: Q01DX009 (ip), vehicle: saline with Tween-80 101 % of control | dose: 12.5 mg/kg/injection, schedule: Q04DX003 (ip), vehicle: saline with Tween-80 101 % of control

Cc1n(-c2ccccc2)c2c([n+]1Cc1ccc([N+](=O)[O-])cc1)C(=O)c1ccccc1C2=O
inactive: dose: 5.0 mg/kg/injection, schedule: Q01DX001 (ip), vehicle: other 106 % of control | dose: 10.0 mg/kg/injection, schedule: Q01DX001 (ip), vehicle: other 101 % of control | dose: 20.0 mg/kg/injection, schedule: Q01DX001 (ip), vehicle: other 93 % of control | dose: 40.0 mg/kg/injection, schedule: Q01DX001 (ip), vehicle: other 95 % of control

Cc1ccc2c(c1C)-c1c(ccc(C)c1C)C(=O)C2=O
inactive: dose: 50.0 mg/kg/injection, schedule: Q04DX002 (ip), vehicle: Klucel (hydroxypropylcellulose) (HPC) 91 % of control | [11] 102 % of control and 113 % of control | [12] 94 % of control | [13] 94 % of control and 100 % of control

c1ccc(-c2csc3n4ccccc4c[n+]23)cc1
inactive: dose: 6.25 mg/kg/injection, schedule: Q04DX002 (ip), vehicle: saline with Tween-80 97 % of control | dose: 12.5 mg/kg/injection, schedule: Q04DX002 (ip), vehicle: saline with Tween-80 100 % of control | dose: 25.0 mg/kg/injection, schedule: Q04DX002 (ip), vehicle: saline with Tween-80 93 % of control

N#CCc1ccc(N=Nc2c(N)nc(N)[nH]c2=O)cc1
inactive: [1] 98 % of control | [2] 96 % of control | [3] 96 % of control

O=C(O)/C(=C\c1ccccc1)c1ccccc1
inactive: [15] 100 % of control | [16] 94 % of control | [17] 100 % of control

O=C(CCN1CCC2CCC(C2)C1)c1ccccc1C(F)(F)F (configuration not stated)
inactive: dose: 50.0 mg/kg/injection, schedule: Q01DX001 (ip), vehicle: carboxymethylcellulose (CMC) 101 % of control

NC(=O)NC(NC(N)=O)C(Cl)(Cl)Cl
inactive: [4] 101 % of control | [15] 100 % of control | [5] 102 % of control | [16] 100 % of control | [6] 102 % of control | [17] 100 % of control

COc1cc2ccc(C(C)N)cc2cc1OC (configuration not stated)
inactive: dose: 50.0 mg/kg/injection, schedule: Q01DX009 (ip), vehicle: saline 100 % of control | [4] 105 % of control | dose: 100.0 mg/kg/injection, schedule: Q04DX003 (ip), vehicle: saline 110 % of control | [5] 103 % of control | dose: 200.0 mg/kg/injection, schedule: Q04DX003 (ip), vehicle: saline 117 % of control

CC(=O)Nc1ccc(NC(=O)Nc2cccc(Cl)c2C)cc1
inactive: dose: 100.0 mg/kg/injection, schedule: Q01DX009 (ip), vehicle: Klucel (hydroxypropylcellulose) (HPC) 89 % of control | dose: 200.0 mg/kg/injection, schedule: Q01DX009 (ip), vehicle: Klucel (hydroxypropylcellulose) (HPC) 89 % of control | dose: 400.0 mg/kg/injection, schedule: Q01DX009 (ip), vehicle: Klucel (hydroxypropylcellulose) (HPC) 91 % of control

Nc1cnc(N)nc1
inactive: dose: 75.0 mg/kg/injection, schedule: Q01DX Z (ip), vehicle: saline 103 % of control | [14] 111 % of control
